Test results published in patent publication US7271144B2, “Therapeutic fibrin-derived peptides and uses thereof” (Fibrex Medical Research & Development GmbH, priority 2000, dated 2007).
Where no end group is shown, it is not given here.

Tests used:
[1] = tested on: monocytes; experiment: Adhesion and transmigration of pure monocytes on HUVEC on a collagen matrix; type: cell-based, human
Procedure: (§1) Endothelial cells from human umbilical veins (HUVEC) were marked with a red fluorescent dye (Cell Tracker Orange, 1 μl/ml, Molecular Probes, Eugene, Oreg.) and were dispersed on a collagen matrix (Collaborative Biomedical Products, Bedford, Mass.). Upon confluence of the endothelial cells, peripheral mononuclear blood cells (PBMC) (10^5 cells per 25 mm^2) marked with a green fluorescent dye (Cell Tracker Green, 1 μl/ml, Molecular Probes of Messrs. Eugene, Origon) were superimposed. Thereafter, the cells were incubated at 37° C. for twelve hours.
(§2) Adhering cells that had transmigrated into the gel were photographed with a laser-scan microscope, were converted into pixels and were evaluated by means of an “NIH image” according to Gröger et al. (J. Immunol. Method 1999; 222: 101-109).
(§3) It was feasible to determine the number of adherent cells per 0.1 mm^2 such as mentioned under “adhesion”. It was feasible to determine the number of migrated cells per 0.04 mm^3 such as mentioned under “migration”. The mean value of three times three trials was evaluated together with the standard deviation.
The proceedings were in accordance with Example 11, except for pure monocytes being used instead of lymphocytes. 100 μg of NDSK-uPA or 100 μg of NDSK-II, respectively, was added to peptide Aalpha, randomized Aalpha, Bbeta or randomized Bbeta.
The proceedings were in accordance with Example 12, with pure monocytes being used. […] of NDSK-uPA or 100 μg of NDSK-II, respectively, was added to the short peptide salts Aalpha Gly Pro Arg (Pro)—NH2 acetate (Aalpha derivative) or Bbeta Gly His Arg Pro-OH acetate (Bbeta derivative).

[2] = tested on: lymphocytes; experiment: Adhesion and transmigration of pure lymphocytes on HUVEC on a collagen matrix; type: cell-based, human; details: for adhesion / migration: lymphocytes
Procedure: as §1, §2, §3
Since PBMC substantially consists of a mixture of lymphocytes and monocytes, pure lymphocytes instead of PBMC (as in Examples 8-10) were used in Example 11.
100 μg of NDSK-uPA or 100 μg of NDSK-II, respectively, and Aalpha or Bbeta, respectively, were added to the collagen matrix according to Example 8 comprising endothelial cells and lymphocytes.
The proceedings were in accordance with Example 11, with pure lymphocytes being used. 100 μg of NDSK-uPA or 100 μg of NDSK-II, respectively, was added to the short peptide salts derived from Aalpha Gly Pro Arg (Pro)—NH2 acetate (Aalpha derivative) or derived from Bbeta Gly His Arg Pro-OH acetate (Bbeta derivative).

[3] = tested on: peripheral mononuclear blood cells (PBMC); experiment: Adhesion and transmigration of PBMC on HUVEC on a collagen matrix; type: cell-based, human; details: for adhesion / migration / migration (migrated cells) / adhesion (adherent cells): PBMC; for conclusion: blocking of NDSK-II-induced PBMC adhesion/migration: Examples 9 and 10, with 100 μg NDSK-II; for migration (migrated cells) / adhesion (adherent cells): Example 8, 12 h
Procedure: as §1, §2, §3
100 μg of NDSK-II and Bbeta or Bbeta randomized were added to the collagen matrix according to Example 8 comprising the suspension of PBMC, and further proceedings were in accordance with Example 8.
100 μg of NDSK-II and Aalpha or Aalpha randomized were added to the collagen matrix according to Example 8 comprising the suspension of PBMC, and further proceedings were in accordance with Example 8.

[4] = tested on: human skin transplanted onto the backs of SCID mice, human lymphocytes injected; experiment: HU-SCID mouse model: inflammatory sites in transplanted human skin; type: in vivo; details: for number of inflammatory sites: Example 3, 100 μg alone, tail vein, mean +/- SD; for number of inflammatory sites / inflammatory sites: 24 hours; for inflammatory sites: Examples 4-7, 100 μg of peptide + 100 μg of human NDSK-II
Procedure: Human skin was transplanted onto the backs of SCID mice, and two weeks later human lymphocytes were injected into the peritoneum. The proceedings were according to Petzelbauer et al. (J. Invest. Dermatol. 1996, 107; 576-581). Then, fifteen mice thus prepared were injected in their tail veins with the following:
Twenty-four hours later, the human skin was removed and the number of inflammatory sites, expressed in cells per 0.3 mm^2, was evaluated and the mean value was determined with a standard deviation.

[5] = tested on: cardiac muscle; experiment: Rat cardiac artery occlusion / reperfusion, infarct planimetry
[6] = Example 12, 100 μg of peptide + 100 μg NDSK-II
[7] = Example 12, 100 μg of peptide + 100 μg NDSK-uPA
[8] = Example 12, substance alone, 100 μg
[9] = Example 11, 100 μg of peptide + 100 μg NDSK-II
[10] = Example 11, 100 μg of peptide + 100 μg NDSK-uPA
[11] = Example 11, substance alone, 100 μg
[12] = Example 9, 10 μg of peptide + 100 μg NDSK-II
[13] = Example 9, 100 μg of peptide + 100 μg NDSK-II
[14] = Example 9, 1000 μg of peptide + 100 μg NDSK-II
[15] = rat, 800 μg/kg intravenously at reperfusion after 25 min occlusion, 2 hours
[16] = Example 10, 10 μg of peptide + 100 μg NDSK-II
[17] = Example 10, 100 μg of peptide + 100 μg NDSK-II
[18] = Example 10, 1000 μg of peptide + 100 μg NDSK-II
[19] = Example 14, 100 μg of short peptide + 100 μg NDSK-II
[20] = Example 14, 100 μg of short peptide + 100 mg NDSK-uPA
[21] = Example 13, 100 μg of short peptide + 100 μg NDSK-II
[22] = Example 13, 100 μg of short peptide + 100 μg NDSK-uPA
[23] = Example 13, substance alone, 100 μg

GHRPLDKKREEAPSLRPAPPPISGGGYR [amino acids 1 to 28 of the beta chain of the fibrin]
adhesion [1, 6]: 70 +/− 7 cells per 0.1 mm^2
migration [1, 6]: 7 +/− 5 cells per 0.04 mm^3
adhesion [1, 7]: 61 +/− 11 cells per 0.1 mm^2
migration [1, 7]: 8 +/− 3 cells per 0.04 mm^3
adhesion [1, 8]: 59 +/− 7 cells per 0.1 mm^2
migration [1, 8]: 5 +/− 1 cells per 0.04 mm^3
conclusion: blocking of lymphocytic adhesion and migration induced by NDSK-II and NDSK-uPA ([2]; Example 11): completely blocks
adhesion [2, 9]: 74 +/− 8 cells per 0.1 mm^2
migration [2, 9]: 17 +/− 3 cells per 0.04 mm^3
adhesion [2, 10]: 74 +/− 8 cells per 0.1 mm^2
migration [2, 10]: 19 +/− 2 cells per 0.04 mm^3
adhesion [2, 11]: 58 +/− 18 cells per 0.1 mm^2
migration [2, 11]: 14 +/− 1 cells per 0.04 mm^3
adhesion [3, 12]: 63 +/− 33 cells per 0.1 mm^2
migration [3, 12]: 7 +/− 4 cells per 0.04 mm^3
adhesion [3, 13]: 47 +/− 34 cells per 0.1 mm^2
migration [3, 13]: 5 +/− 4 cells per 0.04 mm^3
adhesion [3, 14]: 52 +/− 27 cells per 0.1 mm^2
migration [3, 14]: 10 +/− 6 cells per 0.04 mm^3
conclusion: blocking of NDSK-II-induced PBMC adhesion/migration [3]: blocks inflammations
number of inflammatory sites [4]: 6+/−1.1 cells per 0.3 mm^2
inflammatory sites [4]: 14+/−2 per 0.3 mm^2
conclusion: blocking of lymphocytic inflammation ([4]; Examples 4 to 7, with 100 μg NDSK-II): blocks lymphocytic inflammation
cardiac muscle threatened because of the vascular occlusion [5, 15]: 60%
endangered tissue that was dead [5, 15]: 29%
reduction of dead tissue ([5]; versus reference rats, p<0.05): 37%

GPRVVERHQSACKDSDWPFCSDEDWNYK (cysteine pairing not given here) [amino acids 1 to 28 of the alpha chain of the fibrin]
adhesion [1, 6]: 68 +/− 10 cells per 0.1 mm^2
migration [1, 6]: 9 +/− 6 cells per 0.04 mm^3
adhesion [1, 7]: 62 +/− 4 cells per 0.1 mm^2
migration [1, 7]: 8 +/− 5 cells per 0.04 mm^3
adhesion [1, 8]: 59 +/− 6 cells per 0.1 mm^2
migration [1, 8]: 5 +/− 1 cells per 0.04 mm^3
conclusion: blocking of lymphocytic adhesion and migration induced by NDSK-II and NDSK-uPA ([2]; Example 11): no blocking activity
adhesion [2, 9]: 131 +/− 4 cells per 0.1 mm^2
migration [2, 9]: 44 +/− 4 cells per 0.04 mm^3
adhesion [2, 10]: 131 +/− 4 cells per 0.1 mm^2
migration [2, 10]: 40 +/− 3 cells per 0.04 mm^3
adhesion [2, 11]: 77 +/− 4 cells per 0.1 mm^2
migration [2, 11]: 18 +/− 1 cells per 0.04 mm^3
adhesion [3, 16]: 69 +/− 12 cells per 0.1 mm^2
migration [3, 16]: 21 +/− 4 cells per 0.04 mm^3
adhesion [3, 17]: 73 +/− 13 cells per 0.1 mm^2
migration [3, 17]: 15 +/− 6 cells per 0.04 mm^3
adhesion [3, 18]: 70 +/− 6 cells per 0.1 mm^2
migration [3, 18]: 13 +/− 5 cells per 0.04 mm^3
conclusion: blocking of NDSK-II-induced PBMC adhesion/migration [3]: blocks the migration of PBMC only partially
number of inflammatory sites [4]: 4+/−1.1 cells per 0.3 mm^2
inflammatory sites [4]: 21+/−2.2 per 0.3 mm^2

Gly His Arg Pro-OH acetate (GHRP-OH; also: acetate salt) [Bbeta derivative, short peptide salt derived from Bbeta]
adhesion [1, 19]: 68 +/− 7 cells per 0.1 mm^2
migration [1, 19]: 8 +/− 4 cells per 0.04 mm^3
adhesion [1, 20]: 61 +/− 11 cells per 0.1 mm^2
migration [1, 20]: 8 +/− 3 cells per 0.04 mm^3
adhesion ([1]; Example 14, substance alone): 52 +/− 7 cells per 0.1 mm^2
migration ([1]; Example 14, substance alone): 6 +/− 1 cells per 0.04 mm^3
adhesion [2, 21]: 69 +/− 7 cells per 0.1 mm^2
migration [2, 21]: 14 +/− 5 cells per 0.04 mm^3
adhesion [2, 22]: 70 +/− 8 cells per 0.1 mm^2
migration [2, 22]: 16 +/− 3 cells per 0.04 mm^3
adhesion [2, 23]: 58 +/− 10 cells per 0.1 mm^2
migration [2, 23]: 12 +/− 9 cells per 0.04 mm^3

Gly Pro Arg (Pro)—NH2 acetate [Aalpha derivative]
adhesion [1, 19]: 64 +/− 11 cells per 0.1 mm^2
migration [1, 19]: 8 +/− 2 cells per 0.04 mm^3
adhesion [1, 20]: 60 +/− 5 cells per 0.1 mm^2
migration [1, 20]: 7 +/− 6 cells per 0.04 mm^3
adhesion ([1]; Example 14, substance alone): 50 +/− 5 cells per 0.1 mm^2
migration ([1]; Example 14, substance alone): 4 +/− 4 cells per 0.04 mm^3
adhesion [2, 21]: 131 +/− 7 cells per 0.1 mm^2
migration [2, 21]: 49 +/− 6 cells per 0.04 mm^3
adhesion [2, 22]: 134 +/− 4 cells per 0.1 mm^2
migration [2, 22]: 48 +/− 5 cells per 0.04 mm^3
adhesion [2, 23]: 77 +/− 4 cells per 0.1 mm^2
migration [2, 23]: 18 +/− 1 cells per 0.04 mm^3

B1: FCB-2: negative control; 43 kD fibrinogen cleavage product, Aalpha-chain 148-208, Bbeta-chain 191-305 and gamma-chain 95-265 (protein)
chain 1: KVQHIQLLQKNVRAQLVDMKRLEVDIDIKIRSCRGSCSRALAREVDLKDYEDQQKQLEQVI
chain 2: IPTNLRVLRSILENLRSKIQKLESDVSAQMEYCRTPCTVSCNIPVVSGKECEEIIRKGGETSEMYLIQPDSSVKPYRVYCDMNTENGGWTVIQNRQDGSVDFGRKWDPYKQGFGN
chain 3: NPDESSKPNMIDAATLKSRKMLEEIMKYEASILTHDSSIRYLQEIYNSNNQKIVNLKEKVAQLEAQCQEPCKDTVQIHDITGKDCQDIANKGAKQSGLYFIKPLKANQQFLVYCEIDGSGNGWTVFQKRLDGSVDFKKNWIQYKEGFGHLSPTGTTEFWLGNEKIHLISTQ
migration (migrated cells) ([3]; 0.1 μg/ml): 6 +/− 4 cells per 0.04 mm^3
adhesion (adherent cells) ([3]; 0.1 μg/ml, mean +/- SD): 30 +/− 26 cells per 0.1 mm^2
adhesion (adherent cells) ([3]; 1.0 μg/ml): 10 +/− 10 cells per 0.1 mm^2
migration (migrated cells) ([3]; 1.0 μg/ml): 3 +/− 2 cells per 0.04 mm^3
adhesion (adherent cells) ([3]; 10.0 μg/ml): 21 +/− 7 cells per 0.1 mm^2
migration (migrated cells) ([3]; 10.0 μg/ml): 5 +/− 4 cells per 0.04 mm^3
number of inflammatory sites [4]: 9+/−2.1 cells per 0.3 mm^2

B2: NDSK: 63 kD fibrinogen fragment, N-terminal disulfide knot; Aalpha-chain 1-51, Bbeta-chain 1–118 and gamma-chain 1-78 (protein)
chain 1: ADSGEGDFLAEGGGVRGPRVVERHQSACKDSD
chain 2: QGVNDNEEGFFSARGHRPLDKKREEAPSLRPAPPPISGGGYRARPAKAAATQKKVERKAPDAGGCLHADPDLGVLCPTGCQLQEALLQ
chain 3: YVATRDNCCILDERFGSYCPTTCGIADFLSTYQTKVDKDLQSLEDILHQVEN
migration (migrated cells) ([3]; 0.1 μg/ml): 6 +/− 3 cells per 0.04 mm^3
adhesion (adherent cells) ([3]; 0.1 μg/ml, mean +/- SD): 31 +/− 18 cells per 0.1 mm^2
adhesion (adherent cells) ([3]; 1.0 μg/ml): 35 +/− 18 cells per 0.1 mm^2
migration (migrated cells) ([3]; 1.0 μg/ml): 5 +/− 2 cells per 0.04 mm^3
adhesion (adherent cells) ([3]; 10.0 μg/ml): 36 +/− 24 cells per 0.1 mm^2
migration (migrated cells) ([3]; 10.0 μg/ml): 6 +/− 3 cells per 0.04 mm^3
